Laboratory results as given in patent publication US20240166612A1, “ARYLTHIOETHER ACETAMIDE AND RELATED COMPOUNDS AND THEIR USE IN TREATING MEDICAL CONDITIONS” (X-Biotix Therapeutics, Inc., priority 2021, published 2024).
pIC50: −log10 of the molar value. Converted amounts (≈) assume the structure as drawn.

Assays:
[1] = biological target: T1, recombinant LpxA enzyme (P. aeruginosa) (Pseudomonas aeruginosa, UniProt Q9X6P4); test: LpxA in vitro substrate acylation assay with RapidFire MS analysis (P. aeruginosa); type: biochemical; conditions: P. aeruginosa enzyme 0.5 nM, PaACP-C10, 30 min
T1 sequence (Q9X6P4 1-258): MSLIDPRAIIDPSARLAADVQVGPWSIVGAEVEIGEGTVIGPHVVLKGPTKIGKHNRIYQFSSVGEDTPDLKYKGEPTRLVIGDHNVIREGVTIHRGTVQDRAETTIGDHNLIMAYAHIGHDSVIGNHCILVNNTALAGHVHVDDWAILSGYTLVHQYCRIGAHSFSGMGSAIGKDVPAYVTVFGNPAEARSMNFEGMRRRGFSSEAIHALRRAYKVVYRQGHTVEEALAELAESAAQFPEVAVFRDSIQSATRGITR
Method: Exemplary compounds from the above Examples were tested for ability to inhibit LpxA activity using an in vitro substrate acylation assay with RapidFire™ MS analysis. Assay procedures and results are described below.
Reactions were carried out in a final volume of 30 μL with 25 mM HEPES (pH 7.3), 150 mM NaCl, 2 mM DTT, 0.01% BSA, 5 μM UDP-GlcNac, recombinant LpxA enzyme (0.5 nM P. aeruginosa or 1.0 nM E. coli, both produced at Evotec), 0.5 μM acyl-transfer reagent (decanoyl P. aeruginosa acyl-carrier protein [PaACP-C10] or myristoyl E. coli acyl-carrier protein [EcACP-C1-4], both produced at Evotec), and 1% DMSO containing test compound. After 30 min incubation at room temperature, reactions were stopped by addition of 30 μL of 10% TCA in water.
Samples were centrifuged (4350 rpm, 4° C., 5 min), and then subjected to RapidFire™ MS analysis on an Agilent RapidFire 300 coupled to an Agilent 6460 triple-quadrupole mass spectrometer. Analytes were retained on a C4 (type A) cartridge using the following solvents and flow rates: • Pump 1—H2O with 5 mM NH4OAc at 2.0 mL/min, • Pump 2—MeOH/H2O (90/10) at 1.5 mL/min, • Pump 3—MeOH/H2O (90/10) at 0.5 mL/min, and • Pump 4—ACN (organic)/H2O (aqueous). Substrate and product of the reaction were detected in negative mode ESI-MS/MS by MRM (multiple reaction monitoring) of transitions 606.0/385.0 (UDP-GlcNAc substrate) and 776.2/385.0 (UDP-3-O—(R-3-hydroxydecanoyl)-GlcNAc product, for P. aeruginosa LpxA assay) or 832.2/385.0 (UDP-3-O—(R-3-hydroxymyristoyl)-GlcNAc product, for E. coli LpxA assay).
For IC50 determinations, peak areas of the substrate and product were compared to compute the proportion of product formed by the LpxA enzyme at each compound concentration.

[2] = tested on: Wild-type P. aeruginosa PAO1; test: Broth microdilution MIC, wild-type P. aeruginosa PAO1; type: cell-based; conditions: Pseudomonas aeruginosa; wild-type P. aeruginosa PAO1, 37° C., 18 h; read-out: PAO1 WT MIC
[3] = tested on: P. aeruginosa PAO1 ΔmexABoprM; test: Broth microdilution MIC, P. aeruginosa PAO1 ΔmexABoprM; type: cell-based; conditions: Pseudomonas aeruginosa, PAO1, 18 h, read-out: PAO1 KO MIC
Method: Exemplary compounds from the above Examples were tested to determine their minimum inhibitory concentration (MIC) for exemplary strains of Escherichia and Pseudomonas bacteria using broth microdilution methods. Assay procedures and results are described below.
Broth microdilution assays were conducted according to Clinical and Laboratory Standards Institute guidelines (CLSI, M07-A^11: Clinical and Laboratory Standards Institute. Methods for Dilution Antimicrobial Susceptibility Tests for Bacteria that Grow Aerobically; Approved Standard-11th Edition. Wayne, PA: CLSI, 2018). Briefly, bacterial suspensions were adjusted to a density equivalent to a 0.5 McFarland standard and diluted in sterile, cation-adjusted Mueller-Hinton broth (Beckton Dickinson) to yield a final inoculum between 2×10^5 and 8×10^5 colony-forming units (CFU)/mL. An inoculum volume of 98 μL was added to wells containing 2 μL of 2-fold serial dilutions of drug (prepared in DMSO). All inoculated microdilution trays were incubated in ambient air at 37° C. for 18 h. […] Performance of the assay was monitored by the use of laboratory quality-control strains (S. aureus ATCC 29213 and P. aeruginosa ATCC 27853) and levofloxacin, a compound with a defined MIC spectrum, in accordance with CLSI guidelines (CLSI, M100Ed29: Clinical and Laboratory Standards Institute. Performance Standards for Antimicrobial Susceptibility Testing, 29th Edition. Wayne, PA: CLSI, 2018).
Multiple enterobacteriaceae strains were tested, including both wild-type strains and multi-drug resistance pump deficient mutants. Specific strains tested included the following: • Wild-type P. aeruginosa PAO1, • P. aeruginosa PAO1 ΔmexABoprM—Disabled multi-drug efflux system Δ(MexAB-OprM), • P. aeruginosa PAO397—PAO1Δ(mexAB-oprM) Δ(mexCD-oprJ) Δ(mexEF-oprN) Δ(mexJK) Δ(mexXY) ΔopmH, • P. aeruginosa LESB58—Clinical isolate; colistin-resistant, isolated in the United Kingdom in 1988 from a patient with cystic fibrosis • E. coli JW0452-3 (BW25113 JacrA::kan)—Disabled multi-drug efflux system (AcrAB-TolC).
Experimental results are provided in Table 11, which provides MIC values for wild-type P. aeruginosa PAO1 (“PAO1 WT MIC”), P. aeruginosa PAO ΔmexABoprM (“PAO1 KO MIC”), P. aeruginosa PAO397 (“PAO397 KO MIC”), P. aeruginosa LESB58 (“LESB58”), and E. coli JW0452-3 (BW25113 JacrA::kan) (“E. coli KO MIC”).

P. aeruginosa PAO397 = test: Broth microdilution MIC, P. aeruginosa PAO397; type: cell-based; conditions: Pseudomonas aeruginosa, PAO397, 18 h, read-out: PAO397 KO MIC
P. aeruginosa LESB58 = test: Broth microdilution MIC, P. aeruginosa LESB58; type: cell-based; conditions: Pseudomonas aeruginosa; P. aeruginosa LESB58 clinical isolate, colistin-resistant, 37° C., 18 h

| SMILES | pIC50 [1] | MIC [2] | MIC [3] | MIC (P. aeruginosa PAO397) | MIC (P. aeruginosa LESB58) |
| --- | --- | --- | --- | --- | --- |
| CCc1ccccc1SCC(=O)N(Cc1ccc(C#N)cc1)Cc1nnc(N)[nH]1 [Compound No. 70, N-[(5-Amino-4H-1,2,4-triazol-3-yl)methyl]-N-[(4-cyanophenyl)methyl]-2-(2-ethylphenyl)sulfanyl-acetamide] | 7.00 to 7.70 | > 64 µg/mL | 1 to 16 µg/mL (≈ 2.46 to 39.4 µM) | < 1 µg/mL |  |
| N#Cc1ccc(CN(Cc2nnc(N)o2)C(=O)CSc2cccc(Cl)c2Cl)c(F)c1 [compound 57] | 7.00 to 7.70 | > 64 µg/mL | 1 to 16 µg/mL (≈ 2.14 to 34.3 µM) | < 1 µg/mL | 16 to 64 µg/mL (≈ 34.3 to 137 µM) |
| Cc1ccccc1SCC(=O)N(Cc1ccc(C#N)nc1)Cc1nnc(N)o1 [compound 15] | 6.00 to 7.00 | > 64 µg/mL | 1 to 16 µg/mL (≈ 2.54 to 40.6 µM) | 1 to 16 µg/mL (≈ 2.54 to 40.6 µM) |  |
| Nc1nnc(CN(Cc2ccc(S(N)(=O)=O)cc2F)C(=O)CSc2cc(F)ccc2Cl)o1 [compound 24] | 7.00 to 7.70 | > 64 µg/mL | 1 to 16 µg/mL (≈ 1.98 to 31.7 µM) | < 1 µg/mL | 16 to 64 µg/mL (≈ 31.7 to 127 µM) |
| N#Cc1ccc(CN(Cc2nnc(N)o2)C(=O)CSc2cc(F)ccc2Cl)c(F)c1 [compound 30] | > 7.70 | 16 to 64 µg/mL (≈ 35.6 to 142 µM) | 1 to 16 µg/mL (≈ 2.22 to 35.6 µM) | < 1 µg/mL |  |
| N#Cc1ccc(CN(Cc2nnc(N)o2)C(=O)CSc2cc(OCCN)ccc2Cl)c(F)c1 [Compound No. 60, 2-[5-(2-Aminoethoxy)-2-chloro-phenyl]sulfanyl-N-[(5-amino-1,3,4-oxadiazol-2-yl)methyl]-N-[(4-cyano-2-fluoro-phenyl)methyl]acetamide] | 6.00 to 7.00 | > 64 µg/mL | 1 to 16 µg/mL (≈ 2.04 to 32.6 µM) | < 1 µg/mL |  |
| C[C@@H](Oc1ccccc1Cl)C(=O)N(Cc1ccc(C#N)cc1)Cc1nnc(N)o1 [compound 36] | 6.00 to 7.00 | > 64 µg/mL | 16 to 64 µg/mL (≈ 38.8 to 155 µM) | < 1 µg/mL | > 64 µg/mL |
| N#Cc1ccc(CN(Cc2nnc(N)o2)C(=O)CSc2cccc(F)c2Cl)c(F)c1 [Compound No. 28, N-[(5-Amino-1,3,4-oxadiazol-2-yl)methyl]-2-(2-chloro-3-fluoro-phenyl)sulfanyl-N-[(4-cyano-2-fluoro-phenyl)methyl]acetamide] | > 7.70 | 16 to 64 µg/mL (≈ 35.6 to 142 µM) | 1 to 16 µg/mL (≈ 2.22 to 35.6 µM) | < 1 µg/mL |  |
| Cc1nnc(CN(Cc2ccc(C#N)cc2)C(=O)CSc2ccccc2Cl)[nH]1 [compound 74] | 6.00 to 7.00 | > 64 µg/mL | 16 to 64 µg/mL (≈ 38.8 to 155 µM) | 1 to 16 µg/mL (≈ 2.43 to 38.8 µM) |  |
| N#Cc1ccc(CN(Cc2nnc(N)o2)C(=O)CSc2cc(F)cc(F)c2Cl)cn1 [Compound No. 21, N-[(5-Amino-1,3,4-oxadiazol-2-yl)methyl]-2-(2-chloro-3,5-difluoro-phenyl)sulfanyl-N-[(6-cyano-3-pyridyl)methyl]acetamide] | > 7.70 | 16 to 64 µg/mL (≈ 35.5 to 142 µM) | 1 to 16 µg/mL (≈ 2.22 to 35.5 µM) | < 1 µg/mL | 16 to 64 µg/mL (≈ 35.5 to 142 µM) |
| Cc1cc(C#N)ccc1CN(Cc1nnc(N)o1)C(=O)CSc1ccccc1Cl [compound 48] | 7.00 to 7.70 | > 64 µg/mL | 16 to 64 µg/mL (≈ 37.4 to 150 µM) | < 1 µg/mL |  |
| Cc1noc(CN(Cc2ccc(C#N)cc2)C(=O)CSc2ccccc2Cl)n1 [Compound No. 68, 2-(2-Chlorophenyl)sulfanyl-N-[(4-cyanophenyl)methyl]-N-[(3-methyl-1,2,4-oxadiazol-5-yl)methyl]acetamide] | 7.00 to 7.70 | > 64 µg/mL | 16 to 64 µg/mL (≈ 38.8 to 155 µM) | 1 to 16 µg/mL (≈ 2.42 to 38.8 µM) |  |
| CCc1ccccc1SCC(=O)N(Cc1ccc(C#N)nc1)Cc1nnc(N)o1 [Compound No. 7, N-[(5-Amino-1,3,4-oxadiazol-2-yl)methyl]-N-[(6-cyano-3-pyridyl)methyl]-2-(2-ethylphenyl)sulfanyl-acetamide] | > 7.70 | > 64 µg/mL | 1 to 16 µg/mL (≈ 2.45 to 39.2 µM) | < 1 µg/mL | 16 to 64 µg/mL (≈ 39.2 to 157 µM) |
| N#Cc1ccc(CN(Cc2nnc(N)o2)C(=O)COc2ccccc2C(F)(F)F)cc1 [compound 33] | 7.00 to 7.70 | > 64 µg/mL | 16 to 64 µg/mL (≈ 37.1 to 148 µM) | < 1 µg/mL |  |
| CCc1ccccc1OCC(=O)N(Cc1ccc(C#N)nc1)Cc1nnc(N)o1 [compound 19] | 7.00 to 7.70 | > 64 µg/mL | 1 to 16 µg/mL (≈ 2.55 to 40.8 µM) | < 1 µg/mL | 16 to 64 µg/mL (≈ 40.8 to 163 µM) |
| N#Cc1ccc(CN(Cc2nnc(N)o2)C(=O)CSc2cc(F)ccc2Cl)cc1 [compound 51] | > 7.70 | > 64 µg/mL | 1 to 16 µg/mL (≈ 2.32 to 37 µM) | < 1 µg/mL | 1 to 16 µg/mL (≈ 2.32 to 37 µM) |
| N#Cc1ccc(CN(Cc2nnc(N)o2)C(=O)CSc2cc(CO)ccc2Cl)cc1 [compound 45] | 7.00 to 7.70 | > 64 µg/mL | 1 to 16 µg/mL (≈ 2.25 to 36 µM) | < 1 µg/mL |  |
| N#Cc1ccc(CN(Cc2nnc(N)o2)C(=O)COc2ccccc2Br)cc1 [compound 35] | 7.00 to 7.70 | > 64 µg/mL | 1 to 16 µg/mL (≈ 2.26 to 36.2 µM) | < 1 µg/mL |  |
| N#Cc1ccc(CN(Cc2nnc(N)o2)C(=O)CSc2ncccc2Cl)c(F)c1 [compound 58] | 7.00 to 7.70 | > 64 µg/mL | 1 to 16 µg/mL (≈ 2.31 to 37 µM) | < 1 µg/mL | > 64 µg/mL |
